Data reported in patent US10774051B2, “6-membered heterocyclic derivatives and pharmaceutical composition comprising the same” (Shionogi & Co., Ltd., priority 2015, dated 2020).

These compounds were tested against human P2X7 receptor (Homo sapiens, UniProt Q99572, R270H/Y155H) (assay: Evaluation of human P2X7 receptor inhibitory activity (Yo-Pro uptake, BzATP stimulation, FLIPR TETRA)). Settings: 1321N1 cells stably expressing human P2X7 receptor; BzATP stimulation, Yo-Pro uptake; read-out: IC50 (antagonistic activity for the human P2X7 receptor).
Assay type: cell-based
In short: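 1321N1 cells stably expressing human P2X7 (T606C/G952A SNP variant), in HBSS buffer pH 7.4-7.5 with Yo-Pro, stimulated with BzATP; compound added 8 min after agonist. Fluorescence followed for 20 min on FLIPR; max-minus-min change gave % inhibition, IC50 by logistic fit.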

Row | SMILES | IC50 [µM]
1 | COc1cn(Cc2ccc(F)c(Cl)c2)c(Nc2cc(-c3ncco3)ccc2C)cc1=O [Compound I-0953] | 0.025
2 | COc1cn(Cc2ccc(F)c(Cl)c2)c(Nc2cc(C#N)ccc2C)cc1=O [Compound I-0957] | 0.11
3 | COc1ccc(C)c(Oc2cc(=O)c(OC)cn2Cc2ccc(F)c(Cl)c2)c1 [Compound I-0961] | 0.41
4 | COc1cn(Cc2ccc(F)c(Cl)c2)c(Oc2cc(-c3ncco3)ccc2C)cc1=O [Compound I-0965] | 0.44
5 | COc1cn(Cc2ccc(F)c(Cl)c2)c(Oc2cc3sc(C)nc3cc2C)cc1=O [Compound I-0966] | 0.48
6 | COc1cnc(Nc2cccc(Cl)c2C)n(Cc2ccccc2)c1=O [Compound I-0967] | 0.45
7 | COc1cc(C)c(Nc2ncc(OC)c(=O)n2Cc2ccc(F)c(Cl)c2)cc1C [Compound I-0985] | 0.065
8 | COc1cnc(Nc2cc(N3CCCC3=O)ccc2C)n(Cc2ccc(F)c(Cl)c2)c1=O [Compound I-0986] | 0.024
9 | COc1cnc(Nc2cc3sc(C)nc3cc2C)n(Cc2ccc(F)c(Cl)c2)c1=O [Compound I-0987] | 0.11
10 | COc1cnc(Nc2cc(C)cc3[nH]ccc23)n(Cc2ccc(F)c(Cl)c2)c1=O [Compound I-0989] | 0.3
11 | Cc1c(Cl)cccc1Nc1cc(=O)n(C)c(=O)n1Cc1ccccc1 [Compound I-0990] | 0.32
12 | COc1cc(C)c(Nc2cc(=O)n(C)c(=O)n2Cc2cc(F)c(F)c(F)c2)cc1C [Compound I-0991] | 0.029
13 | Cn1ccc2c(Nc3nc(=O)c(F)cn3Cc3ccc(F)c(Cl)c3)cccc21 [Compound I-1019] | 0.004

Same assay, conditions: antagonistic activity for the human P2X7 receptor; read-out: IC50

Row | SMILES | IC50 [µM]
14 | COc1cn(Cc2ccccc2)c(Nc2cc(C)c(F)cc2C)cc1=O [Compound I-0946] | 0.5 to 1
15 | COc1ccc(C)c(Nc2cc(=O)c(OC)cn2Cc2ccc(F)c(Cl)c2)c1 [Compound I-0947] | 0.01 to 0.1
16 | COc1cn(Cc2ccc(F)c(Cl)c2)c(Nc2cc(C)c(OC(F)F)cc2C)cc1=O [Compound I-0948] | 0.01 to 0.1
17 | COc1cn(Cc2ccc(F)c(Cl)c2)c(Nc2cc(C)c(Cl)cc2C)cc1=O [Compound I-0949] | 0.1 to 0.5
18 | COc1cn(Cc2ccccc2)c(Nc2ccc(Cl)cc2C)cc1=O [Compound I-0950] | 0.1 to 0.5
19 | COc1cn(Cc2ccccc2)c(Nc2cc(C)c(OC(F)F)cc2C)cc1=O [Compound I-0951] | 0.1 to 0.5
20 | COc1ccc(C)c(Nc2cc(=O)c(OC)cn2Cc2ccccc2)c1 [Compound I-0952] | 0.1 to 0.5
21 | COc1cc(C)c(Nc2cc(=O)c(OC)cn2Cc2ccc(F)c(Cl)c2)cc1C [Compound I-0954] | 0.01 to 0.1
22 | COc1ccc(Cl)c(Nc2cc(=O)c(OC)cn2Cc2ccc(F)c(Cl)c2)c1 [Compound I-0955] | 0.01 to 0.1
23 | COc1cn(Cc2ccc(F)c(Cl)c2)c(Nc2cc(C(F)(F)F)ccc2C)cc1=O [Compound I-0956] | 0.1 to 0.5
24 | COc1cn(Cc2ccc(F)c(Cl)c2)c(Nc2ccc(C#N)cc2C)cc1=O [Compound I-0958] | 0.1 to 0.5
25 | COc1ccc(Nc2cc(=O)c(OC)cn2Cc2ccccc2)c(C)c1 [Compound I-0959] | 0.5 to 1
26 | COc1cc(C)c(Nc2c(Cl)c(=O)c(OC)cn2Cc2ccc(F)c(Cl)c2)cc1C [Compound I-0964] | 0.1 to 0.5
27 | COc1cnc(Nc2cccc(Cl)c2C)n(Cc2cccc(Cl)c2)c1=O [Compound I-0969] | 0.5 to 1
28 | COc1cnc(Nc2cccc(Cl)c2C)n(Cc2ccc(F)c(Cl)c2)c1=O [Compound I-0971] | 0.1 to 0.5
29 | COc1cnc(Nc2cccc(Cl)c2C)n(Cc2ccc(F)c(F)c2)c1=O [Compound I-0973] | 0.1 to 0.5
30 | COc1cnc(Nc2cc(C)c(Cl)cc2C)n(Cc2ccccc2)c1=O [Compound I-0981] | 0.5 to 1
31 | COc1cc(Nc2nc(=O)c(F)cn2Cc2ccc(F)c(F)c2)c(C)cc1Cl [Compound I-0993] | < 0.01
32 | Cc1ccc(OC(F)F)cc1Nc1nc(=O)c(F)cn1Cc1cc(F)cc(F)c1 [Compound I-0994] | 0.01 to 0.1
33 | O=c1nc(Nc2cccc3c2CCN3)n(Cc2cc(F)c(F)c(F)c2)cc1F [Compound I-0995] | 0.01 to 0.1
34 | COCc1ccc(C)c(Nc2nc(=O)c(F)cn2Cc2cc(F)cc(F)c2)c1 [Compound I-0996] | 0.01 to 0.1
35 | Cc1ccc(OCC2CC2)cc1Nc1nc(=O)c(F)cn1Cc1cc(F)cc(F)c1 [Compound I-0997] | 0.01 to 0.1
36 | CCOc1ccc(C)c(Nc2nc(=O)c(F)cn2Cc2ccc(F)c(Cl)c2)c1 [Compound I-0998] | < 0.01

Row | SMILES | IC50 [µM]
37 | CCOc1ccc(C)c(Nc2nc(=O)c(F)cn2Cc2ccc(F)c(F)c2)c1 [Compound I-0999] | < 0.01
38 | COc1nc(C)c(Nc2nc(=O)c(F)cn2Cc2cc(F)c(F)c(F)c2)cc1C [Compound I-1000] | < 0.01
39 | Cc1cc2c(cc1Nc1nc(=O)c(F)cn1Cc1cc(F)cc(F)c1)CCO2 [Compound I-1001] | < 0.01
40 | CCOc1ccc(C)c(Nc2nc(=O)c(F)cn2Cc2cc(F)cc(F)c2)c1 [Compound I-1002] | 0.01 to 0.1
41 | COc1nc(C)c(Nc2nc(=O)c(F)cn2Cc2cc(F)cc(F)c2)cc1C [Compound I-1003] | < 0.01
42 | COc1nc(C)c(Nc2nc(=O)c(F)cn2Cc2ccc(F)c(Cl)c2)cc1C [Compound I-1004] | < 0.01
43 | COc1cc(Nc2nc(=O)c(F)cn2Cc2cc(F)cc(F)c2)c(C)cc1Cl [Compound I-1005] | < 0.01
44 | COc1cc(Nc2nc(=O)c(F)cn2Cc2cc(F)c(F)c(F)c2)c(C)cc1Cl [Compound I-1006] | < 0.01
45 | CCOc1ccc(C)c(Nc2nc(=O)c(F)cn2Cc2cc(F)c(F)c(F)c2)c1 [Compound I-1007] | < 0.01
46 | COc1nc(C)c(Nc2nc(=O)c(F)cn2Cc2ccc(F)c(F)c2)cc1C [Compound I-1008] | < 0.01
47 | Cc1nc2cc(C)c(Nc3nc(=O)c(F)cn3Cc3cc(F)cc(F)c3)cc2s1 [Compound I-1009] | < 0.01
48 | Cc1nc2cc(C)c(Nc3nc(=O)c(F)cn3Cc3ccc(F)c(F)c3)cc2s1 [Compound I-1010] | < 0.01
49 | Cc1nc2cc(C)c(Nc3nc(=O)c(F)cn3Cc3ccc(F)cc3)cc2s1 [Compound I-1011] | < 0.01
50 | Cc1ccc(CO)cc1Nc1nc(=O)c(F)cn1Cc1ccc(F)c(F)c1 [Compound I-1012] | < 0.01
51 | Cc1ccc(CO)cc1Nc1nc(=O)c(F)cn1Cc1ccc(F)c(Cl)c1 [Compound I-1013] | < 0.01
52 | Cc1ccc(CO)cc1Nc1nc(=O)c(F)cn1Cc1cc(F)cc(F)c1 [Compound I-1014] | < 0.01
53 | Cc1ccc(CO)cc1Nc1nc(=O)c(F)cn1Cc1cc(F)c(F)c(F)c1 [Compound I-1015] | < 0.01
54 | Cc1nc2[nH]ccc2cc1Nc1nc(=O)c(F)cn1Cc1cc(F)cc(F)c1 [Compound I-1016] | 0.01 to 0.1
55 | Cc1nc2[nH]ccc2cc1Nc1nc(=O)c(F)cn1Cc1cc(F)c(F)c(F)c1 [Compound I-1017] | 0.01 to 0.1
56 | Cn1ccc2c(Nc3nc(=O)c(F)cn3Cc3cc(F)c(F)c(F)c3)cccc21 [Compound I-1018] | < 0.01
57 | Cn1ccc2c(Nc3nc(=O)c(F)cn3Cc3ccc(F)c(F)c3)cccc21 [Compound I-1020] | < 0.01
58 | Cn1ccc2c(Nc3nc(=O)c(F)cn3Cc3cc(F)cc(F)c3)cccc21 [Compound I-1021] | < 0.01
59 | O=c1nc(Nc2cccc3[nH]ccc23)n(Cc2cc(F)cc(F)c2)cc1F [Compound I-1022] | < 0.01

Row | SMILES | IC50 [µM]
60 | O=c1nc(Nc2cccc3[nH]ccc23)n(Cc2cc(F)c(F)c(F)c2)cc1F [Compound I-1023] | < 0.01
61 | O=c1nc(Nc2cccc3[nH]ccc23)n(Cc2ccc(F)c(Cl)c2)cc1F [Compound I-1024] | < 0.01
62 | O=c1nc(Nc2cccc3[nH]ccc23)n(Cc2ccc(F)c(F)c2)cc1F [Compound I-1025] | < 0.01
63 | Cc1cc2c(cc1Nc1nc(=O)c(F)cn1Cc1ccc(F)c(Cl)c1)COC2 [Compound I-1026] | < 0.01
64 | Cc1cc2c(cc1Nc1nc(=O)c(F)cn1Cc1cc(F)cc(F)c1)COC2 [Compound I-1027] | 0.01 to 0.1
65 | Cc1cc2c(cc1Nc1nc(=O)c(F)cn1Cc1ccc(F)c(F)c1)COC2 [Compound I-1028] | < 0.01
66 | CCOc1cc(Nc2nc(=O)c(F)cn2Cc2cc(F)c(F)c(F)c2)c(C)cc1F [Compound I-1030] | < 0.01
67 | CCOc1cc(Nc2nc(=O)c(F)cn2Cc2ccc(F)c(Cl)c2)c(C)cc1F [Compound I-1031] | < 0.01
68 | CCOc1cc(Nc2nc(=O)c(F)cn2Cc2cc(F)cc(F)c2)c(C)cc1F [Compound I-1032] | 0.01 to 0.1
69 | CCOc1cc(Nc2nc(=O)c(F)cn2Cc2ccc(F)c(F)c2)c(C)cc1F [Compound I-1033] | < 0.01
70 | CCOc1ccc(Nc2nc(=O)c(F)cn2Cc2cc(F)c(F)c(F)c2)c(C)c1 [Compound I-1034] | < 0.01
71 | CCOc1ccc(Nc2nc(=O)c(F)cn2Cc2ccc(F)c(Cl)c2)c(C)c1 [Compound I-1035] | 0.01 to 0.1
72 | COc1ccc(Nc2nc(=O)c(F)cn2Cc2cc(F)c(F)c(F)c2)c(C)n1 [Compound I-1036] | 0.01 to 0.1
73 | COc1ccc(Nc2nc(=O)c(F)cn2Cc2cc(F)cc(F)c2)c(C)n1 [Compound I-1037] | 0.01 to 0.1
74 | CCOc1cc(C)c(Nc2nc(=O)c(F)cn2Cc2cc(F)c(F)c(F)c2)cc1F [Compound I-1038] | 0.01 to 0.1
75 | Cc1cc(OC(F)F)ccc1Nc1nc(=O)c(F)cn1Cc1cc(F)c(F)c(F)c1 [Compound I-1039] | 0.01 to 0.1
76 | Cc1cc2[nH]ccc2cc1Nc1nc(=O)c(F)cn1Cc1ccc(F)c(Cl)c1 [Compound I-1042] | < 0.01
77 | Cc1cc2[nH]ccc2cc1Nc1nc(=O)c(F)cn1Cc1ccc(F)c(F)c1 [Compound I-1043] | < 0.01
78 | Cc1cc2[nH]ccc2cc1Nc1nc(=O)c(F)cn1Cc1cc(F)cc(F)c1 [Compound I-1044] | < 0.01
79 | Cc1cc2[nH]ccc2cc1Nc1nc(=O)c(F)cn1Cc1cc(F)c(F)c(F)c1 [Compound I-1045] | < 0.01
80 | Cc1cc2c(cc1Nc1nc(=O)c(F)cn1Cc1cc(F)c(F)c(F)c1)CCO2 [Compound I-1046] | < 0.01
